Drawing on BindingDB's records for doi:10.1016/0024-3205(91)90562-p (Technion-Israel Institute of Technology, 1991), this text covers Ki for three compounds.

Assay [1] deals with Gamma-aminobutyric acid receptor subunit alpha-1 (Rattus norvegicus, UniProt P62813).
In assay [2] the target is T1, Gamma-aminobutyric acid receptor subunit alpha-1 (Homo sapiens, UniProt P14867).
T1 sequence (P14867 whole entry): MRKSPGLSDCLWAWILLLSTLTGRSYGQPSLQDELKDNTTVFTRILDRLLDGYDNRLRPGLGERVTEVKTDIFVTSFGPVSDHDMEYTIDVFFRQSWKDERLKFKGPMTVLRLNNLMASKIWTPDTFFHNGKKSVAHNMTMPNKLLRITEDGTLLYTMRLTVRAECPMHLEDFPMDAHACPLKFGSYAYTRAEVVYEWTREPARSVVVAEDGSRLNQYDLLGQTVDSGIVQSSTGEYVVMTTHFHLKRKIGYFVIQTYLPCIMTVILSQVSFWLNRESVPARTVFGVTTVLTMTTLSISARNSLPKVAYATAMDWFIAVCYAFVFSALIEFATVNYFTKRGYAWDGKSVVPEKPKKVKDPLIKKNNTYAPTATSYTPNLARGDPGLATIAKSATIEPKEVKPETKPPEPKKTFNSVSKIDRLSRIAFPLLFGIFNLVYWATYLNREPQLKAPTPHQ

Structures are written as SMILES. pKi: −log10 of the molar value. Where “and” joins values, the source holds several entries; their conditions need not be identical. Equal values may be shown once. Bounds are passed on as bounds.

Chain of Gamma-aminobutyric acid receptor subunit alpha-1 (Rattus norvegicus, UniProt P62813) (P62813 whole entry): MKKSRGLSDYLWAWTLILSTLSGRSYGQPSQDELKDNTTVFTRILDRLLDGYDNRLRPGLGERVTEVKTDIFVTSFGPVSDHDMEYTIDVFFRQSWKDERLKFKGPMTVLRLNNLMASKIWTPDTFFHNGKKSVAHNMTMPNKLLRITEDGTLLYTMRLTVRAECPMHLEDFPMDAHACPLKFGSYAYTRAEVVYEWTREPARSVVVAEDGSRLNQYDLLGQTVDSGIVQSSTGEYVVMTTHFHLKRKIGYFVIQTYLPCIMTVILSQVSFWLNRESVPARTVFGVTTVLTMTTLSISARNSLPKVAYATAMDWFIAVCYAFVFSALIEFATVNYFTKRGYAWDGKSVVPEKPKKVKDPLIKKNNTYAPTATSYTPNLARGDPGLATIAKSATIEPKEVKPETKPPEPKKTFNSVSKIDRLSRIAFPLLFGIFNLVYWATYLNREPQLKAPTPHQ

Take `CC[C@@H](C)N(C)C(=O)c1cc2ccccc2c(-c2ccccc2Cl)n1` [PK 11195]: the pKi (as a rule, the negative decadic logarithm of the Ki, by convention in mol/L) is 7.74 and 8.52 and 8.40 in assay [1]; 8.10 and 8.30 in assay [2].

As to `O=C1CN=C(c2ccccc2Cl)c2cc([N+](=O)[O-])ccc2N1` [5-(2-chlorophenyl)-7-nitro-1,3-dihydro-2H-1,4-benzodiazepin-2-one], the negative logarithm of the Ki (pKi) in assay [1] and in assay [2] was less than 5.00 throughout.

`CN1C(=O)CN=C(c2ccc(Cl)cc2)c2cc(Cl)ccc21` [Ro5-4864]: the negative logarithm of the Ki (pKi) in assay [2] is 6.12.
